Laboratory results reported in paper PMC6429710, “Structure–activity relationships in a series of antiplasmodial thieno[2,3-b]pyridines” (Malaria Journal, 2019).
Values after ≈ are worked out from the molar mass of the structure shown. Like-named read-outs stand apart in the source and are kept apart here.

Assays:
[1] = test system: asexual erythrocytic stages of transgenic NF54-luc P. falciparum; experiment: Luciferase-based viability screening for antiplasmodial activity; assay type: cell-based, Plasmodium falciparum; conditions: for % inhibition ± SD, PfNF54-Luc at 3 µM: 3 µM test compound, luciferase readout; for IC50: read-out: IC50 [µM], PfNF54-Luc
Description: For the luciferase-based viability assays, asexual erythrocytic stages of transgenic NF54-luc P. falciparum were used. These parasites constitutively express high luciferase levels. The parasites were cultured as described previously. Parasite cultures with parasitaemia of 0.5–1% were dispensed in triplicate into white 96-well flat-bottom plates (each well contains 250 µL) (NUNC, Roskilde, Denmark) and incubated in the presence of 3 µM test compounds for 48 h (37 °C, 90% N2, 5% CO2, and 5% O2). 0.01% DMSO was included in the untreated infected RBC cultures as negative control, since the compounds stock initially was diluted in DMSO and each treatment well also contained 0.01% DMSO. Subsequently, 100 µL RPMI1640 media was removed from each well and a 100 µL volume of the Bright-Glo® substrate solution was added to each well. The resultant cleavage product of the reaction, light, was measured using a […] luminometer (Thermo), to ascertain viable parasites. Untreated cultures were used as negative controls and to calculate the inhibition rate (0% inhibition of parasite growth). Experiments were performed in triplicate and were repeated as a whole at least twice. Blasticidin (Sigma-Aldrich, St. Louis, MO, USA), used for selection of transfected parasites, was included as a positive control on each plate and gave > 90% inhibition of parasite growth at concentration 2 µg/mL. […] For active compounds IC50 values were determined from dose–response curves. Calculation of parasite growth inhibition, of the IC50 values and statistical analysis were carried out using GraphPad Prism Version 6.0b (GraphPad Software, Inc. San Diego, CA).

PfGSK-3 = molecular target: T1, PfGSK-3 (Plasmodium falciparum, UniProt O77344); experiment: biochemical; assay type: biochemical; conditions: for IC50: 6 µM ATP, mean of three determinations, range in brackets, read-out: IC50 [µM], PfGSK-3 (Kinase Glo Plus)
T1 construct: 6xHis; made in house; host or cells: Escherichia coli C41
T1 sequence (O77344 1-440): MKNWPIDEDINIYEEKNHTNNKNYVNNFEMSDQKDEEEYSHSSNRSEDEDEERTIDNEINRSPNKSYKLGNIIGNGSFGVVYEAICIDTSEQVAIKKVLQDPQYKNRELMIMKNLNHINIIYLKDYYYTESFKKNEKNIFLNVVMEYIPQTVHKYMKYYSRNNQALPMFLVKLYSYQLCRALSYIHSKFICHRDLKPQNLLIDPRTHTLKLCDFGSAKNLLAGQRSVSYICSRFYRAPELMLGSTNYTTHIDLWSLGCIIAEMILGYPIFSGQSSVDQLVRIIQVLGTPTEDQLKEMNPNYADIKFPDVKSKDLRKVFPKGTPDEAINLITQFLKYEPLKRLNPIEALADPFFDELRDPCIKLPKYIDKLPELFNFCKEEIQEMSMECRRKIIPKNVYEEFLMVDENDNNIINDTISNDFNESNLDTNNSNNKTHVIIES
Description: PfGSK-3 was cloned into pOPIN F expression vector [41] using ligation independent cloning (InFusion, Takara Clontech). Expression vector was transformed into Escherichia coli C41 and expression of recombinant PfGSK3-6xHis was induced by incubation with 1 mM IPTG at 16 °C overnight.
Kinase activity was measured using Kinase-Glo Plus Luminescent Kinase Assay (Promega). 20 ng recombinant GSK-3 were incubated for 30 min at 30 °C in the presence of 12 μM GS-1 peptide substrate ([…]pSEDEEE, pS stands for phosphorylated serine, Biaffin GmbH & Co KG/proteinkinase.de) and 6 μM ATP (ultra pure, Promega) in a total volume of 5 μL kinase reaction buffer (40 mM Tris/HCl pH 7.5; 20 mM MgCl2; 0.1 mg/mL BSA). Kinase reaction mix was transferred to a solid white 384 well plate (NUNC, Thermo Scientific) and kinase reaction was stopped by adding 5 μL RT Kinase-Glo reagent. After 10 min luminescence was measured in an EnVision multilabel plate reader (Perkin Elmer, integration time 0.5 s/well). […] All samples were normalized to a negative control (reaction without kinase). Data points were plotted into Graphpad Prism, normalized to a DMSO control and IC50 values were calculated using nonlinear regression.

HsGSK-3 = HsGSK-3 (Homo sapiens, UniProt P49841); experiment: Kinase-Glo Plus assay for inhibition of HsGSK-3; assay type: biochemical; conditions: 6 µM ATP; mean of three determinations, range in brackets
HsGSK-3, sequence (P49841 whole entry): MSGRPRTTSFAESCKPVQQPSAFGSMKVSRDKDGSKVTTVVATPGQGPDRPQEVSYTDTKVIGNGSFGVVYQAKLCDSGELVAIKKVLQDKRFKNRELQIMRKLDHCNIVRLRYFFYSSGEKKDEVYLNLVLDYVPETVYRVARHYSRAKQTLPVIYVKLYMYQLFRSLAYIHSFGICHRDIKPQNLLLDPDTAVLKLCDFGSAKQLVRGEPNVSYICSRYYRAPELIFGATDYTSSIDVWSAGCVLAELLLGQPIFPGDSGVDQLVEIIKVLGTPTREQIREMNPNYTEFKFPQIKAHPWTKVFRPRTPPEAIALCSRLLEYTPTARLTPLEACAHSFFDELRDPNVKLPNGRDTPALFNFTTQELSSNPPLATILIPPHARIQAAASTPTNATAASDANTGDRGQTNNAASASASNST
Description: Kinase reaction mix was transferred to a solid white 384 well plate (NUNC, Thermo Scientific) and kinase reaction was stopped by adding 5 μL RT Kinase-Glo reagent. After 10 min luminescence was measured in an EnVision multilabel plate reader (Perkin Elmer, integration time 0.5 s/well). […] All samples were normalized to a negative control (reaction without kinase). Data points were plotted into Graphpad Prism, normalized to a DMSO control and IC50 values were calculated using nonlinear regression.

[2] = Kinetic solubility by laser nephelometry; assay type: physicochemical; conditions: kinetic from dmso stock, aqueous phosphate buffer pH 7.4, 1% DMSO, 25 °C, mean ± standard deviation, read-out: S0 pH 7.4, exp (kinetic solubility)
Description: Kinetic solubility indicates the solubility of the most rapidly precipitating form. Kinetic solubilities of 1 and 4h were determined by laser nephelometry using the […] nephelometer (BMG LabTech, Ortenberg, Germany) and F-bottom transparent 96-well plates. The instrument uses red laser light (635 nm, 80% intensity), which passes through the 96-well plate and which is scattered by turbid suspensions. Each compound was measured six times at 25 °C by preparing three independent stock solutions in concentrations of 5 to 10 mM in DMSO. From each stock solution two independent dilution series were prepared. Based on preliminary experiments, dilution concentrations were chosen such that at least five to six concentrations below and above the expected point of precipitation were recorded. To the 96-well plate containing 198 μL aqueous phosphate buffer at pH 7.4, 2 μL of each dilution sample in DMSO was added and shaken for 10 s. at 700 rpm (double orbital). […] The pH was adjusted by adding sulfuric acid. First, the plates were scanned without content to quantify the background, which was later subtracted from the obtained values of each individual well. As blank, 2 μL of neat DMSO was added to the phosphate buffer. Close to the point of precipitation, particle concentration can be assumed to be proportional to the intensity of scattered light. […]

HEK293T cells = experiment: Cytotoxicity assay on HEK293 cells (PrestoBlue viability); assay type: cell-based, human
Description: HEK293T cells were seeded into a solid black flat bottom 96 well plate (2.5 × 10^4 cells/well) in 200 μL Dulbecco Modified Eagle Medium (DMEM) supplemented with 10% fetal bovine serum and 1% Pen/Strep (final concentration of 100 U/mL Penicillin and 100 μg/mL Streptomycin). Cells were incubated at 37 °C under 5% CO2. After 18 h the supernatant was removed and fresh DMEM containing serial dilutions of compounds was added. Compounds were solubilized in DMSO (final DMSO concentration in HEK293T culture was 0.5%.) Wells containing 0.5% DMSO served as a negative control. Plates were incubated for further 48 h at 37 °C under 5% CO2. To monitor cell viability the supernatant was removed and cells were incubated with 200 μL 10% PrestoBlue (Invitrogen) in PBS at 37 °C. After 30 min fluorescence (λex = 560 nm, λem = 590 nm) was measured in an EnVision multilable plate reader (Perkin Elmer, integration time 0.1 s/well). Data points were plotted into Graphpad Prism, normalized to the DMSO control and IC50 values were calculated using nonlinear regression.

[3] = test system: asexual erythrocytic stages of transgenic NF54-luc P. falciparum; design: method as in PMID 23214499; conditions: prototype compound 1; read-out: IC50 [µM], PfNF54-Luc; cited from earlier work
[4] = from dose-response curves, 48 h

In the case of `N#Cc1c(N)nc2sc(C(=O)c3cccc(Cl)c3)c(N)c2c1-c1ccc(Cl)cc1Cl` [2a], the “% inhibition ± SD, PfNF54-Luc at 3 µM” value ([1]; 48 h) is reported as 25.7 ± 3.5% and the IC50 [1, 4] is reported as 6.2 µM.
In the case of `N#Cc1c(N)nc2sc(C(=O)c3cccc(Cl)c3)c(N)c2c1-c1ccc(F)cc1Cl` [2b], the “% inhibition ± SD, PfNF54-Luc at 3 µM” value ([1]; 48 h) is reported as 28.1 ± 3.3% and the IC50 [1, 4] is reported as 6.1 µM.
With `Cc1ccc(-c2c(C#N)c(N)nc3sc(C(=O)c4cccc(Cl)c4)c(N)c23)c(Cl)c1` [2d] the “% inhibition ± SD, PfNF54-Luc at 3 µM” value ([1]; 48 h) was 12.4 ± 2.4%.
For `N#Cc1c(N)nc2sc(C(=O)c3cccc(Cl)c3)c(N)c2c1-c1ccc(O)cc1Cl` [2e], the “% inhibition ± SD, PfNF54-Luc at 3 µM” value ([1]; 48 h) was 0.2 ± 2.5%.
With `COc1ccc(-c2c(C#N)c(N)nc3sc(C(=O)c4cccc(Cl)c4)c(N)c23)c(Cl)c1` [3a] the “% inhibition ± SD, PfNF54-Luc at 3 µM” value ([1]; 48 h) was 33.2 ± 3.2% and the IC50 [1, 4] was 12.2 µM.
With `CCOc1ccc(-c2c(C#N)c(N)nc3sc(C(=O)c4cccc(Cl)c4)c(N)c23)c(Cl)c1` [3b] the “% inhibition ± SD, PfNF54-Luc at 3 µM” value ([1]; 48 h) was 14.5 ± 1.3%.
With `N#Cc1c(N)nc2sc(C(=O)c3cccc(Cl)c3)c(N)c2c1-c1ccc(OCc2ccccc2)cc1Cl` [3c] the “% inhibition ± SD, PfNF54-Luc at 3 µM” value ([1]; 48 h) was 12.8 ± 4.9%.
With `N#Cc1c(N)nc2sc(C(=O)c3cccc(Cl)c3)c(N)c2c1-c1ccc(OCCO)cc1Cl` [3d] the “% inhibition ± SD, PfNF54-Luc at 3 µM” value ([1]; 48 h) was 25.6 ± 3.3% and the IC50 [1, 4] was 20 µM.
In the case of `N#Cc1c(N)nc2sc(C(=O)c3cccc(Cl)c3)c(N)c2c1-c1ccc(OCC(O)CO)cc1Cl` (centres unmarked) [3f], the “% inhibition ± SD, PfNF54-Luc at 3 µM” value ([1]; 48 h) is reported as 14.7 ± 1.8%.
With `N#Cc1c(N)nc2sc(C(=O)c3cccc(Cl)c3)c(N)c2c1-c1ccc(OCC(=O)O)cc1Cl` [3g] the “% inhibition ± SD, PfNF54-Luc at 3 µM” value ([1]; 48 h) was 31.3 ± 1.1%.
In the case of `CN(C)c1ccc(-c2c(C#N)c(N)nc3sc(C(=O)c4cccc(Cl)c4)c(N)c23)c(Cl)c1` [4a], the “% inhibition ± SD, PfNF54-Luc at 3 µM” value ([1]; 48 h) is reported as 29.9 ± 5.6% and the IC50 [1, 4] is reported as 5.7 µM.
In the case of `N#Cc1c(N)nc2sc(C(=O)c3cccc(Cl)c3)c(N)c2c1-c1ccc(N2CCCC2)cc1Cl` [4c], the “% inhibition ± SD, PfNF54-Luc at 3 µM” value ([1]; 48 h) is reported as 33.0 ± 2.4%.
For `N#Cc1c(N)nc2sc(C(=O)c3cccc(Cl)c3)c(N)c2c1-c1ccc(N2CCCCC2)cc1Cl` [4d], the “% inhibition ± SD, PfNF54-Luc at 3 µM” value ([1]; 48 h) was 39.1 ± 1.1% and the IC50 [1, 4] was 5 µM.
In the case of `N#Cc1c(N)nc2sc(C(=O)c3cccc(Cl)c3)c(N)c2c1-c1ccc(N2CCOCC2)cc1Cl` [4e], the “% inhibition ± SD, PfNF54-Luc at 3 µM” value ([1]; 48 h) is reported as 20.2 ± 4.8%.
For `CN(CCNC(=O)OC(C)(C)C)c1ccc(-c2c(C#N)c(N)nc3sc(C(=O)c4cccc(Cl)c4)c(N)c23)c(Cl)c1` [4f], the “% inhibition ± SD, PfNF54-Luc at 3 µM” value ([1]; 48 h) was 67.1 ± 2.7% and the IC50 [1, 4] was 2.5 µM.
With `CC(C)(C)OC(=O)N1CCN(c2ccc(-c3c(C#N)c(N)nc4sc(C(=O)c5cccc(Cl)c5)c(N)c34)c(Cl)c2)CC1` [4g] the “% inhibition ± SD, PfNF54-Luc at 3 µM” value ([1]; 48 h) was 42.1 ± 2.9% and the IC50 [1, 4] was 3.8 µM.
In the case of `CN(CCN)c1ccc(-c2c(C#N)c(N)nc3sc(C(=O)c4cccc(Cl)c4)c(N)c23)c(Cl)c1.Cl` [4i], the “% inhibition ± SD, PfNF54-Luc at 3 µM” value ([1]; 48 h) is reported as 8.1 ± 3.3%.
With `Cl.N#Cc1c(N)nc2sc(C(=O)c3cccc(Cl)c3)c(N)c2c1-c1ccc(N2CCNCC2)cc1Cl` [4j] the “% inhibition ± SD, PfNF54-Luc at 3 µM” value ([1]; 48 h) was 75.7 ± 1.5% and the IC50 [1, 4] was 1.5 µM.
Molecule `CCN(CC)c1ccc(-c2c(C#N)c(N)nc3sc(C(=O)c4cccc(Cl)c4)c(N)c23)c(Cl)c1` [(+)4b] has an IC50 (PfGSK-3) of 39.6 µM, an inhibition at 3 µM ([1]; Plasmodium falciparum, NF54, 48 h, read-out: % inhibition ± SD, PfNF54-Luc at 3 µM) of 73 ± 1.2% and an IC50 ([1]; Plasmodium falciparum, NF54, 48 h) of 1.1 µM. The IC50 (HsGSK-3) was greater than 100 µM.
Work on `CCN(CC)c1ccc(-c2c(C#N)c(N)nc3sc(C(=O)c4cccc(Cl)c4)c(N)c23)c(Cl)c1` [(−)4b] yielded an IC50 (PfGSK-3) greater than 100 µM.
With `CN(CC[C@H](N)CC(=O)N[C@H]1C=C[C@H](n2ccc(N)nc2=O)O[C@@H]1C(=O)O)C(=N)N` [BS, Blasticidin, reference compound] the “inhibition of parasite growth (positive control)” value ([1]; 2 µg/mL, 48 h) was greater than 90% and the “% inhibition ± SD, PfNF54-Luc at 3 µM” value ([1]; 48 h) was 99.3 ± 0.7%.
In the case of `N#Cc1c(N)nc2sc(C(=O)c3cccc(Cl)c3)c(N)c2c1-c1ccccc1Cl` [compound 1], the solubility kinetic at 10 s [2] is reported as 1.5 ± 0.3 µM (≈ 0.659 µg/mL), the “SI (selectivity index) = IC50 HEK293T/IC50 PfNF54-Luc” value (HEK293T cells; HEK293T versus PfNF54-Luc) is reported as 6.4 and the IC50 (HEK293T cells; Homo sapiens, HEK-293T, cell viability, 48 h, mean of six determinations, range in brackets) is reported as 35.2 µM. The IC50 (PfGSK-3) was 0.24 µM, the “selectivity index plasmodial versus human GSK-3” value (PfGSK-3; Kinase Glo Plus assay, PfGSK-3 versus HsGSK-3) was 38 and the IC50 (HsGSK-3) was 9.08 µM. For the same molecule, the IC50 [3] was 5.5 µM.
